Reference: patent publication US20200196637A1, “COMPOSITION FOR PREVENTION OR TREATMENT OF MILD COGNITIVE […] […] […] AS ACTIVE INGREDIENT” (priority 2016, published 2020)

System: APOE-gene deficient mice (BALB/c.KOR/StmSlc-Apoe^shl)
Assay: Y maze test of spacial working memory
Type: in vivo
Conditions: intake from age of 8 weeks, examined 250 days later (10-month old)
Procedure: The wild type mice used were BALB/cCrSlc and the APOE-gene deficient mice used were BALB/c.KOR/StmSlc-Apoe^shl.
The cognitive function was measured by the Y maze test (Conrad C D. et al., Brain Res. 1997; 759:76-83). Its principle is as follows. Animals placed in the center of 3 arms in the Y-shape start exploratory behavior after a while. Normal animals rarely return to the arm once explored and explore different arms in turn with the help of marks seen out of the maze. However, model animals with declined space recognition and/or memory go to the same place many times and enter the arm that the animal entered the last time again. In the Y maze test, the order of the arms that an animal entered during a certain period of time is measured and the percentage of the number of times (percent alternation) when the mouse entered all different arms in a consecutive raw of three times as an indicator of space recognition and memory.
Powder feed containing 0.1 g of MgH2 in 1 kg of MF powder feed (a product manufactured by Oriental Yeast Co., ltd.) was produced and the animals were allowed to take the feed freely. […] The control feed was feed containing 0.22 g of Mg(OH)2 per 1 kg of MF powder feed. The feed was changed with fresh feed five times a week.
The control mice were placed for 1 hour in a chamber containing the air five times a week.

Row | Compound | spacial working memory (percent alternation, Y maze, FIG. 4)
1 | [H-].[H-].[Mg+2] [MgH2, magnesium hydride] | the decline of spacial working memory was decreased
2 | [HH] [hydrogen gas] | the decline of spacial working memory was decreased
